Reference: patent publication US20260097047A1, “Small molecule inhibitors of the ribosome biogenesis factor NVL2” (Board of Regents, The University of Texas System, priority 2023, published 2026)

Experiments:
[1] = Drug levels in plasma and tumor at end of efficacy study (NSG mice); format: in vivo, mouse; conditions: 3 hours after the last treatment dose, 35 mg/kg IP twice a day for 21 days
Procedure: Having established the kinetics of MM927 mediated NVL inhibition in xenograft tumors, we administered 35 mg/kg MM927 IP twice a day for 21 days to mice harboring tumors derived from either HCT116 NVL wild type or NVL^R403W cells. […] Taken together, we concluded that the potent, and bioavailable analog MM927 reduces tumor growth in mouse xenografts by inhibiting NVL without toxicity.
Pharmacokinetic studies were performed by dosing 6-7 week old CD-1 female mice with analog MM927 formulated as 10% DMSO/10% Kolliphor EL/10% Solutal/70% D5W via the intraperitoneal route. […] The resulting supernatants were evaluated by LC-MS/MS using a Sciex (Framingham, MA) 4500 Triple Quad coupled to a Shimadzu (Columbia, MD) Prominence LC. Briefly, MM927 was detected in multiple reaction monitoring mode (MRM) using the (m+1) transition 488.059/176.1. […] The concentrations of drug in each time-point sample were quantified using Analyst software (Sciex). […] The limit of quantitation (LOQ) was defined as the lowest concentration at which back calculation yielded a concentration within 20% of theoretical and which was above the LOD. Cmax and AUC values were calculated using the noncompartmental analysis tool of Phoenix WinNonLin (Certara/Pharsight, Sunnyvale, CA). […]

HCT116 NVL^H304R cells = assay: Cell viability in HCT116 NVL^H304R knock-in cells; format: cell-based; conditions: Homo sapiens, HCT-116
Excerpt: From whole exome sequencing, we identified variants that were acquired during IAA-induced mutagenesis with the hypothesis that genes related to resistance will be mutated in multiple clones. Two genes contained acquired variants in at least 3 of the 15 selected clones: TERT, mutated in 3 of 15 clones, and NVL, mutated in all 15 clones. […] In sum, 57 out of 59 unique clones harbored NVL mutations. The majority of mutations clustered within the D1 AAA+ ATPase domain and frequently affecting the same codons. […]
HCT116 cells were transfected with TransIT-LT (Mirus #MIR2304) according to manufacturer's protocol with a guide RNA (either mock or NVL targeting) in the px330 vector (Addgene, #42230), and 10 nM single stranded deoxyoligonucleotide encoding a specific NVL mutation (see below for specific sequences). […] The resulting cells were evaluated by cresyl violet staining or collected and the relevant NVL mutations were analyzed by either amplicon or sanger sequencing.
Cell viability assay: In 96-well assay plates (Corning #2903), 2,000 cells were plated per well in 100 μL of medium and allowed to adhere overnight. […] Luminescence (CellTiter-Glo) was recorded using a Synergy 2 microplate reader (BioTek). […]

[2] = system: MM017-resistant iHCT116 clones; assay: Forward genetics: MM017-resistant iHCT116 clones (NVL mutations); format: cell-based, human; conditions: summary statement
Excerpt: This system uses an engineered colorectal cancer HCT116 cell line (iHCT116) in which the addition of indole acetic acid (IAA) initiates a ubiquitin-mediated degradation of the DNA mismatch repair protein MLH1, thereby providing a mechanism to temporarily increase mutation rates. We applied this strategy to MM017, a dibenzothiazepinone identified in a high-throughput small molecule screen for HCT116 cytotoxicity. […] We exposed barcoded iHCT116 cells, that had previously been cultured either with (Mutagenesis-on) or without IAA (Mutagenesis-off), to increasingly lethal doses of MM017.

SMILES: CC#CCN1C(=O)c2ccc(F)cc2Sc2cc(NC(=O)c3ccc4oc(=O)n(C)c4c3)ccc21 [MM927, N-(10-(But-2-yn-1-yl)-3-fluoro-11-oxo-10,11-dihydrodibenzo[b,f][1,4]thiazepin-7-yl)-3-methyl-2-oxo-2,3-dihydrobenzo[d]oxazole-5-carboxamide]
- level in plasma and tumor [1]: micromolar levels

SMILES: COCCN1C(=O)c2ccccc2Sc2cc(NC(=O)c3ccoc3)ccc21 [MM017]
- IC50 (HCT116 NVL^H304R cells): 2400 nM
- resistance caused by mutations in NVL2 [2]: 30 fold
